Assay results reported in publication PMC11040665, “Aminothiazolone Inhibitors Disrupt the Protein–RNA Interaction of METTL16 and Modulate the m^6A RNA Modification” (JACS Au, 2024).
“Also recorded” adds a separate entry of the source.

Columns and labels:
[1] = biological target: T1, METTL16–MAT2A-hp1 mRNA interaction (METTL16 MTD 1–291, FAM-labeled MAT2A-hp1 RNA) (Homo sapiens, UniProt Q86W50); assay: Fluorescence polarization (FP) assay, disruption of METTL16 binding to FAM-MAT2A-hp1 RNA; settings: for IC50 class in the FP assay (MAT2A-hp1): 50 nM METTL16 MTD, 5 nM FAM-MAT2A-hp1, given as 'inactive'
T1 sequence (Q86W50 1-291): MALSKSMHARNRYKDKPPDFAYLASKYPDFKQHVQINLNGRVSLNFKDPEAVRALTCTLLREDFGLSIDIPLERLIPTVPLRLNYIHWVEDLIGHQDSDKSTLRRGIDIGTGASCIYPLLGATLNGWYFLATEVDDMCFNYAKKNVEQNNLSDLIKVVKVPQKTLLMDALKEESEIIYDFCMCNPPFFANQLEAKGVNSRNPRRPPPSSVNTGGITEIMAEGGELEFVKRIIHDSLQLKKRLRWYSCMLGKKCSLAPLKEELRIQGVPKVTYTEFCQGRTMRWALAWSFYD
Procedure: The binding of METTL16 to the FAM-labeled RNA probe formed a complex that led to a higher FP signal in comparison to that of the unbound RNA probe (Figure 2A). […] The Z-factor of 0.91 indicated the suitability of the assay condition (Figure S2D). […] In both FP assay and EMSA, a final concentration of 50 nM METTL16 and 5 nM FAM-MAT2A-hp was used. The METTL16 MTD (amino acids 1–291) was used in this study unless specifically indicated otherwise.
The FP assay was performed using 384-well black plates (Corning #4514) in a total reaction volume of 20 μL, with the final concentration of protein and RNA being 50 and 5 nM respectively. Compounds were diluted in FP buffer and incubated with protein for 30 min at room temperature, then FAM-MAT2A-hp1 RNA probe was added and the fluorescence polarization was measured using a TECAN Spark plate reader, under the excitation wavelength of 485 nm and the emission wavelength of 535 nm with bandwidth of 20 nm. 1% DMSO was used as the control. The inhibition was calculated with the equation: inhibition = 100%(Control – X)/(Control – Blank); Control: DMSO with protein and FAM-RNA; Blank: DMSO with FAM-RNA; X: compound with protein and FAM-RNA. The IC50 value was further determined using GraphPad Prism 9. […] The polarization was measured under an excitation wavelength of 630 nm and an emission wavelength of 680 nm with a bandwidth of 20 nm.

[2] = biological target: T2, METTL16 MTD–U6 snRNA Δ interaction (Homo sapiens, UniProt Q86W50); assay: FP assay with Cy5-labeled U6 snRNA Δ; type: binding
T2 construct: METTL16 MTD (1–291) was subcloned to pOPINB plasmid; His tag followed by HRV 3C cleavage site (N, cleaved yes); made in house; host or cells: E. coli Rosetta (DE3)
T2 sequence (Q86W50 1-291): T1 sequence (Q86W50 1-291)

[3] = biological target: T3, methyltransferase activity of METTL16 MTD toward MAT2A-hp1 (Homo sapiens, UniProt Q86W50); assay: In vitro methylation assay (MTase Glo); type: biochemical; settings: RNA substrate MAT2A-hp1
T3 construct: METTL16 MTD (1–291) was subcloned to pOPINB plasmid; His tag followed by HRV 3C cleavage site (N, cleaved yes); made in house; host or cells: E. coli Rosetta (DE3)
T3 sequence (Q86W50 1-291): T1 sequence (Q86W50 1-291)
Procedure: Next, we evaluated the inhibition of the METTL16 methylation using the MTase Glo assay kit (Promega) measuring the methyltransferase activity based on the formation of the methylation product S-adenosyl homocysteine, which was converted to ADP by the MTase-Glo reagent to trigger a subsequent luciferase reaction (Figure 5E).
The methyltransferase activity of METTL16 MTD was measured using an MTase Glo kit (Promega V7601) following the manufacturer’s instructions. The reaction was carried out in white 384-well plates (Corning #3824), with a total methyltransferase reaction volume of 8 μL, and the final concentrations of METTL16 MTD, MAT2A-hp1, and SAM were 1, 1, and 10 μM, respectively, and 1% of DMSO was used as a control. […] To use SAM at a different final concentration, the concentration of SAM was adjusted accordingly in a 2× substrate solution.

[4] = biological target: T4, METTL16 (1-291)–FAM-MAT2A-hp1 RNA (Homo sapiens, UniProt Q86W50); assay: FP assay after incubating SAM with METTL16; type: binding; settings: SAM incubated with METTL16 before the FP assay
T4 construct: METTL16 MTD (1–291) was subcloned to pOPINB plasmid; His tag followed by HRV 3C cleavage site (N, cleaved yes); made in house; host or cells: E. coli Rosetta (DE3)
T4 sequence (Q86W50 1-291): T1 sequence (Q86W50 1-291)

[5] = biological target: T5, METTL16 MTD–GGACU-containing RNA interaction (Homo sapiens, UniProt Q86W50); assay: EMSA with GGACU-containing RNA; settings: 5 nM RNA, 600 nM METTL16 MTD
T5 sequence (Q86W50 1-291): T1 sequence (Q86W50 1-291)
Procedure: METTL16 MTD protein (1–291) was incubated with the indicated compound or DMSO in a buffer containing 20 mM HEPES, pH 7.5, 50 mM NaCl, 0.05% v/v Tween 20, and 0.05 mg/mL BGG at room temperature for 30 min; subsequently, FAM-MAT2A-hp1 RNA probe was added and incubated at room temperature for 10 min, the final of protein and RNA are 50 and 5 nM respectively, and 1% DMSO was used as the control. […] The gel was detected and imaged by Chemi Doc MP (Bio-Rad). […] EMSA for testing compounds with GGAUC-motif containing RNA and METTL16 MTD interaction was performed using the method described above, expecting that the final of METTL16 MTD protein and FAM-labeled-GGACU RNA are 600 nM and 5 nM respectively. EMSA for RNA binding: indicated concentrations of fluorophore-labeled RNA were incubated with indicated concentrations of protein in EMSA buffer for 15 min at room temperature, then loaded to native PAGE gels and imaged with the method described above.

MDA-MB-231 cells = assay: Colony formation assay; type: cell-based, human; settings: 7 days, three tested concentrations
Procedure: MDA-MB-231 cells were collected and seeded with the density of 1000 cells per well into 24-well plates; after being cultured overnight, the medium was exchanged and treated with indicated compounds or DMSO (0.5%) as the control. The medium change and treatment were performed every 3 days. After 7 days, the cell culture medium was discarded, and cells were washed with PBS and fixed with 4% paraformaldehyde solution at room temperature for 15 min; the paraformaldehyde solution was removed, and cells were washed with PBS again to remove the paraformaldehyde. Then cells were stained with 0.1% (w/v) crystal violet. After staining for 15 min, the cells were washed with H2O to remove the extra dye and then photographed.

METTL16 (1-291) = biological target: T6, METTL16 (1-291) (Homo sapiens, UniProt Q86W50); assay: Covalent binding evaluation by protein LC–MS; settings: 30 μM METTL16 (1-291), 100 μM compound, 30 or 150 min
T6 construct: METTL16 MTD (1–291) was subcloned to pOPINB plasmid; His tag followed by HRV 3C cleavage site (N, cleaved yes); made in house; host or cells: E. coli Rosetta (DE3)
T6 sequence (Q86W50 1-291): T1 sequence (Q86W50 1-291)
Procedure: To evaluate whether the aminothiazolones covalently bind to METTL16, we performed the LC–MS analysis after incubating the protein with aminothiazolones for 30 and 150 min, respectively. In the case of covalent binding, we would expect to observe the formation of covalent adducts, which would accrue over time. […] Besides the LC–MS analysis result, an irreversible inhibition counter screening indicated the reversible inhibitory activity of the aminothiazolones (Figure S8A).
Figure S7. Covalent evaluation of METTL16 inhibitors via LC-MS. (A) Deconvoluted mass spectrum of 30 µM METTL16 (1-291) incubated with 1% DMSO for 30 min (left) and 150 min (right). (B), (C), (D) Deconvoluted […]
(right). Expected Mass for METTL16 (1-291), 33455.7 Da. The observed small mass shift of ~50 Da appeared in both the DMSO control and compound-treated samples was probably formed by the solvent used in the LC-MS.
(1 picture or pasted object on this page, not shown here)
For computational docking analysis of aminothiazolones to the RNA binding site of METTL16 (PDB code: 6B91)2 Schrödinger® Maestro 12.3 was used. […]
Chemical states were generated with the ligand preparation module and METTL16 conformation with the protein preparation module. […] The glide dock module was used and the results were evaluated according to interactions between small molecules and METTL16, small molecule orientations, docking scores and solvent exposure patterns. […]
METTL16 MTD protein was diluted in SEC buffer (20mM pH 7.5, 200 mM NaCl, 0.5 mM TCEP,5% v/v glycerol) to a final concentration of 30 µM, and incubated with DMSO or 100 μM compound (final 1% DMSO) at room temperature. After incubation (30 min or 150 min), the samples were analyzed on an Agilent 1260 II Infinity system equipped with an electrospray ion source in positive mode, run through a Desalting cartridge (AdvanceBio Desalting-RP, 2.1 mm, 12.5mm, Agilent) with a gradient of 5-80% HPLC-grade acetonitrile (+ 0.1% TFA) in HPLC-grade water (+ 0.1% TFA) (flowrate: 0.4 mL/min, runtime: 6 min). […]

SMILES	IC50 [1]	IC50 class in the FP assay (MAT2A-hp1) [1]	other results
COc1ccc(S(=O)(=O)NC2=NC(=O)C(=C3C(=O)Nc4ccc(C)cc43)S2)cc1 [Compound 2]	24.3 ± 5.3 µM	–	–
COc1ccc(S(=O)(=O)NC2=NC(=O)C(=C3C(=O)Nc4ccc(OC)cc43)S2)cc1 [Compound 3]	23.8 ± 5.5 µM	–	–
COc1ccc(S(=O)(=O)NC2=NC(=O)C(=C3C(=O)Nc4ccc([N+](=O)[O-])cc43)S2)cc1 [Compound 4]	8.2 ± 0.76 µM	–	–
COc1ccc(S(=O)(=O)NC2=NC(=O)C(=C3C(=O)Nc4ccc(Br)cc43)S2)cc1 [Compound 8]	12.4 ± 2.8 µM	–	–
COc1ccc(S(=O)(=O)NC2=NC(=O)C(=C3C(=O)N(c4ccccc4)c4ccccc43)S2)cc1 [Compound 10]	–	inactive	–
COc1ccc(S(=O)(=O)NC2=NC(=O)C(=C3C(=O)Nc4c(F)cccc43)S2)cc1 [Compound 11]	28.9 ± 5.8 µM	–	–
COc1ccc(S(=O)(=O)NC2=NC(=O)C(=C3C(=O)Nc4cc(F)ccc43)S2)cc1 [Compound 12]	–	inactive	–
COc1ccc(S(=O)(=O)NC2=NC(=O)C(=C3C(=O)Nc4ccc(F)cc43)S2)cc1 [Compound 13]	26.9 ± 3.5 µM	–	–
COc1ccc(S(=O)(=O)NC2=NC(=O)C(=C3C(=O)Nc4c(Cl)cccc43)S2)cc1 [Compound 14]	57.6 ± 1.3 µM	–	–
COc1ccc(S(=O)(=O)NC2=NC(=O)C(=C3C(=O)Nc4cc(Cl)ccc43)S2)cc1 [Compound 15]	26.4 ± 5 µM	–	–
COc1ccc(S(=O)(=O)NC2=NC(=O)C(=C3C(=O)N(C)c4ccc(F)cc43)S2)cc1 [Compound 16]	15 ± 1 µM	–	–
COc1ccc(S(=O)(=O)NC2=NC(=O)C(=C3C(=O)N(C)c4cc(F)ccc43)S2)cc1 [Compound 17]	22.8 ± 2.3 µM	–	–
COc1ccc(S(=O)(=O)NC2=NC(=O)C(=Cc3cc4ccccc4[nH]3)S2)cc1 [Compound 18]	23.2 ± 2.7 µM	–	–
Cc1ccc(S(=O)(=O)NC2=NC(=O)C(=C3C(=O)Nc4ccc(Cl)cc43)S2)cc1 [Compound 19]	13.5 ± 1.7 µM	–	–
O=C1N=C(NS(=O)(=O)c2ccccc2)SC1=C1C(=O)Nc2ccc(Cl)cc21 [Compound 20]	15.7 ± 1.6 µM	–	–
O=C1N=C(NS(=O)(=O)c2cccc([N+](=O)[O-])c2)SC1=C1C(=O)Nc2ccc(Cl)cc21 [Compound 22]	12 ± 2 µM	–	–
CC(C)(C)c1ccc(S(=O)(=O)NC2=NC(=O)C(=C3C(=O)Nc4ccc(Cl)cc43)S2)cc1 [Compound 23]	–	inactive	–

SMILES	IC50 [1]	IC50 class in the FP assay (MAT2A-hp1) [1]	other results
O=C1N=C(NS(=O)(=O)c2ccc(F)cc2Cl)SC1=C1C(=O)Nc2ccc(Cl)cc21 [Compound 24]	14 ± 1.5 µM	–	–
O=C1N=C(NS(=O)(=O)c2ccc(C3CCCCC3)cc2)SC1=C1C(=O)Nc2ccc(Cl)cc21 [Compound 25]	–	inactive	–
O=C1N=C(NS(=O)(=O)c2ccc(-c3ccccc3)cc2)SC1=C1C(=O)Nc2ccc(Cl)cc21 [Compound 26]	–	inactive	–
CS(=O)(=O)NC1=NC(=O)C(=C2C(=O)Nc3ccc(Cl)cc32)S1 [Compound 29]	36.2 ± 2.8 µM	–	–
O=C1N=C(NS(=O)(=O)c2ccc(C(F)(F)F)cc2)SC1=C1C(=O)Nc2ccc(Cl)cc21 [Compound 30]	13.6 ± 3.6 µM	–	–
O=C1N=C(NS(=O)(=O)c2ccc3ccccc3c2)SC1=C1C(=O)Nc2ccc(Cl)cc21 [Compound 31]	9.9 ± 1.3 µM	–	–
O=C1N=C(NS(=O)(=O)c2ccc(F)cc2)SC1=C1C(=O)Nc2ccc(Cl)cc21 [Compound 33]	30.4 ± 10.5 µM	–	–
Cc1ccc(C(=O)NC2=NC(=O)C(=C3C(=O)Nc4ccc(Cl)cc43)S2)cc1 [Compound 34]	–	inactive	–
COc1ccc(C(=O)NC2=NC(=O)C(=C3C(=O)Nc4ccc(Cl)cc43)S2)cc1 [Compound 35]	–	inactive	–
COc1ccc(C(=O)NC2=NC(=O)C(=C3C(=O)Nc4ccc(Cl)cc43)S2)cc1OC [Compound 36]	–	inactive	–
O=C1N=C(NC(=O)c2ccc(F)cc2)SC1=C1C(=O)Nc2ccc(Cl)cc21 [Compound 37]	–	inactive	–
COc1ccc(S(=O)(=O)NC2=NC(=O)C(=C3C(=O)Nc4ccc(Cl)cc43)O2)cc1 [Compound 38]	–	inactive	inhibitory activity against METTL16 in the FP assay, in words ([1]; FAM-MAT2A-hp1 RNA): did not show inhibitory activity
CN1C(=O)C(=C2SC(NS(=O)(=O)c3ccc(C(=O)O)cc3)=NC2=O)c2cc([N+](=O)[O-])ccc21 [Compound 46]	2 µM	–	IC50 [2]: 2.8 µM; inhibition of the methyltransferase activity of METTL16 MTD, in words [3]: dose-dependently inhibited; also recorded: potent inhibitory activity; IC50 under different SAM concentrations (FP assay), in words [4]: remained; inhibition of METTL16–GGACU RNA binding in EMSA, in words [5]: dose-dependently inhibited; inhibition on colony formation, in words (MDA-MB-231 cells): did not show obvious inhibition on colony formation; covalent adduct formation with METTL16 (LC–MS) (METTL16 (1-291)): no such covalent adduct with a mass shift was observed
COC(=O)c1ccc(S(=O)(=O)NC2=NC(=O)C(=C3C(=O)N(C)c4ccc(Br)cc43)S2)cc1 [Compound 48]	29.4 ± 7.5 µM	–	fold decrease in inhibitory activity (FP assay) ([1]; 42 compared to compound 4, methyl ester 48 compared to the carboxylic acid analogue): 20 fold
CN1C(=O)C(=C2SC(NS(=O)(=O)c3cccc(C(=O)O)c3)=NC2=O)c2cc(Br)ccc21 [Compound 49]	3 µM	–	IC50 [2]: 5.3 µM
O=C1CSC(NS(=O)(=O)c2ccccc2)=N1 [Compound Ia]	> 100 µM	inactive	–
